Test results taken from ChEMBL document CHEMBL4417631, “Oral peptide inhibitors of interleukin-23 receptor and their use to treat inflammatory bowel diseases” (2017).
Where a SMILES comes first, the peptide text is derived from it. [ ]: non-standard residue; d: D form. hLeu = CC(C)CC[C@H](N)C(=O)O

Target: T1, Interleukin-23 receptor (Homo sapiens, UniProt Q5VWK5)
T1 sequence (Q5VWK5 whole entry): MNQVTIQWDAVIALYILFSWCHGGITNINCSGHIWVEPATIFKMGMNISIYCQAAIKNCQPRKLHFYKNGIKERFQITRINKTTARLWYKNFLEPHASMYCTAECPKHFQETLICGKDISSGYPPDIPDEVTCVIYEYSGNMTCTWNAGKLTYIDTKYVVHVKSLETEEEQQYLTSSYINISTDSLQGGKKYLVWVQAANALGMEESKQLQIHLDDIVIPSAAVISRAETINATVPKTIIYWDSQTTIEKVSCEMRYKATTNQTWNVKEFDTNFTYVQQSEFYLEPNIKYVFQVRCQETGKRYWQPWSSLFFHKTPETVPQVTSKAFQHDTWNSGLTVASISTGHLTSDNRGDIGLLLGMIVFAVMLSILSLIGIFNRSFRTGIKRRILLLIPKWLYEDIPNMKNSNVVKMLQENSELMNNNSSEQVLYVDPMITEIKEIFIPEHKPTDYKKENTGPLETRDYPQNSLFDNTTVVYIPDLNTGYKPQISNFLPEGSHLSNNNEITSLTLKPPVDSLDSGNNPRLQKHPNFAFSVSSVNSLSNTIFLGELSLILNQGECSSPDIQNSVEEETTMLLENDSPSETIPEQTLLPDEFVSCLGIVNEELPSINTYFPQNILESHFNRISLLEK
Test: Inhibition of interleukin-23 binding to human interleukin-23 receptor incubated for 2 hrs by competitive binding ELISA

Compound	IC50 [nM]
CC(=O)N[C@@H](C)C(=O)N[C@H](C(=O)N[C@@H](CC(=O)O)C(=O)N[C@@H](Cc1c[nH]c2ccccc12)C(=O)N[C@H](C(=O)N[C@@H](CS)C(=O)N[C@@H](Cc1ccc(O)cc1)C(=O)N[C@@H](Cc1c[nH]c2ccccc12)C(=O)N[C@@H](CCCNC(=N)N)C(=O)N[C@@H](CCCCN)C(=O)N[C@@H](Cc1ccccc1)C(=O)NCC(=O)NCCOCC(=O)N[C@H](CCCCN)C(N)=O)C(C)C)C(C)(C)S	100 to 1000
CC(=O)N[C@@H](CS)C(=O)N[C@@H](CCC(N)=O)C(=O)N[C@H](C(=O)N[C@@H](Cc1c[nH]c2ccccc12)C(=O)N[C@@H](CCC(N)=O)C(=O)N[C@@H](CS)C(=O)N[C@@H](Cc1ccc(O)cc1)C(=O)N[C@@H](CCc1ccccc1)CC(=O)N[C@@H](CCCNC(=N)N)C(=O)N[C@H](C(=O)N[C@@H](CC(N)=O)C(=O)NCC(=O)NCCOCC(=O)N[C@H](CCCCN)C(N)=O)C(C)C)[C@@H](C)O	> 30000
CC(=O)N[C@@H](CS)C(=O)N[C@@H](CCC(=O)O)C(=O)N[C@@H](CC(=O)O)C(=O)N[C@@H](Cc1c[nH]c2ccccc12)C(=O)N[C@@H](CCCCN)C(=O)N[C@@H](CS)C(=O)N[C@@H](Cc1ccc(O)cc1)C(=O)N[C@@H](Cc1c[nH]c2ccccc12)C(=O)N[C@@H](Cc1cnc[nH]1)C(=O)N[C@@H](CCCCN)C(=O)N[C@@H](Cc1ccc(O)cc1)C(=O)NCC(N)=O (Ac-CEDWKCYWHKYG-NH2)	< 500
CC(=O)N[C@@H](CS)C(=O)N[C@@H](CCC(N)=O)C(=O)N[C@H](C(=O)N1CCC[C@H]1C(=O)N[C@@H](CCC(N)=O)C(=O)N[C@@H](CS)C(=O)N[C@@H](Cc1ccc(O)cc1)C(=O)N[C@@H](Cc1c[nH]c2ccccc12)C(=O)N[C@@H](CCC(C)C)C(=O)N[C@@H](CCC(=O)O)C(=O)N[C@@H](CC(N)=O)C(=O)NCC(N)=O)[C@@H](C)O (Ac-CQTPQCYW[hLeu]ENG-NH2)	> 10000
N=C(N)NCCC[C@H](NC(=O)[C@H](Cc1cnc[nH]1)NC(=O)[C@H](Cc1c[nH]c2ccccc12)NC(=O)[C@H](Cc1ccc(O)cc1)NC(=O)[C@H](CS)NC(=O)[C@H](CCC(=O)O)NC(=O)[C@H](Cc1c[nH]c2ccccc12)NC(=O)[C@H](CC(N)=O)NC(=O)[C@@H]1CCCN1C(=O)[C@@H](N)CS)C(=O)N[C@@H](Cc1ccccc1)C(=O)NCC(N)=O (H-CPNWECYWHRFG-NH2)	500 to 1000

Further lines, results first:

IC50 [nM]	Compound
100 to 1000	CC(=O)N[C@@H](CS)C(=O)N[C@@H](C)C(=O)N[C@@H](CC(=O)O)C(=O)N[C@@H](Cc1c[nH]c2ccccc12)C(=O)N[C@H](C(=O)N[C@@H](CS)C(=O)N[C@@H](Cc1ccc(O)cc1)C(=O)N[C@@H](Cc1c[nH]c2ccccc12)C(=O)N[C@@H](Cc1cnc[nH]1)C(=O)N[C@H](C(=O)N[C@@H](Cc1ccccc1)C(=O)NCC(=O)N[C@@H](C)C(=O)N1CCC[C@H]1C(=O)N[C@H](CCCCN)C(=O)O)[C@@H](C)O)C(C)C
< 500	CC(=O)N[C@@H](CS)C(=O)N[C@@H](CCC(N)=O)C(=O)N[C@H](C(=O)N[C@@H](Cc1c[nH]c2ccccc12)C(=O)N[C@@H](CCC(N)=O)C(=O)N[C@@H](CS)C(=O)N[C@@H](Cc1ccc(O)cc1)C(=O)N[C@@H](Cc1c[nH]c2ccccc12)C(=O)N[C@@H](CC1CCCC1)C(=O)N[C@@H](CCC(=O)O)C(=O)N[C@@H](CC(N)=O)C(=O)NCC(=O)NCCOCC(=O)N[C@H](CCCCN)C(N)=O)[C@@H](C)O
30000	CC(=O)N[C@@H](CS)C(=O)N[C@@H](CCC(N)=O)C(=O)N[C@H](C(=O)N[C@@H](Cc1c[nH]c2ccccc12)C(=O)N[C@@H](CCC(N)=O)C(=O)N[C@@H](CS)C(=O)N[C@@](C)(Cc1ccccc1)C(=O)N[C@@H](Cc1c[nH]c2ccccc12)C(=O)N[C@@H](CCC(C)C)C(=O)N[C@@H](CCC(=O)O)C(=O)N[C@@H](CC(N)=O)C(=O)NCC(N)=O)[C@@H](C)O
> 1000	CC(C)[C@H](NC(=O)[C@H](Cc1cnc[nH]1)NC(=O)[C@H](Cc1c[nH]c2ccccc12)NC(=O)[C@H](Cc1ccc(O)cc1)NC(=O)[C@H](CS)NC(=O)[C@H](CCCNC(=N)N)NC(=O)[C@H](Cc1c[nH]c2ccccc12)NC(=O)[C@H](CC(=O)O)NC(=O)[C@H](CO)NC(=O)[C@@H](N)CS)C(=O)N[C@@H](Cc1ccccc1)C(=O)NCC(N)=O (H-CSDWRCYWHVFG-NH2)
